Drawing on PubChem BioAssay (NCI), this text covers GI50 and TGI for nine compounds.

SMILES strings stand for the structures. Several values for one entry are separate records, joined by “and”; a condition that tells them apart may be missing. Identical values can stand only once.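 Five concentrations, 48 hours, 96-well plates. GI50 = concentration required for 50% inhibition of growth. TGI marks complete inhibition of growth.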

Test systems include IGROV1 ovarian; SR leukemia; HT29 colon; CAKI-1 renal; CCRF-CEM leukemia; KM12 colon; NCI/ADR-RES ovarian; NCI-H460 lung; SNB-75 CNS; HL-60(TB) leukemia.
Assay in all cases: DTP human tumour cell line panel, 48 h

A word on the GI50: it is the concentration giving 50% growth inhibition. One may read the TGI as the concentration giving total growth inhibition. A higher TGI goes with lower sensitivity of the cells. Take `COc1cc(-c2ccc[nH]2)[nH]c1/C=C1\N=C(C)C(C(=O)NC(C)C)=C1C`: the GI50 is 4.81 µM in the assay on IGROV1 ovarian; 2170 nM with SR leukemia; 508 nM in the assay on HT29 colon; 2.8 µM in the assay on CAKI-1 renal; 1770 nM in the assay on CCRF-CEM leukemia; 1930 nM in the assay on KM12 colon. Moreover, the GI50 with NCI/ADR-RES ovarian is 4.24 µM; in the assay with NCI-H460 lung it was 2440 nM; in the assay with SNB-75 CNS it was 4.94 µM; in the assay on HL-60(TB) leukemia, 2400 nM. The TGI amounted to 25.4 µM with IGROV1 ovarian; 7.87 µM with SR leukemia; 10.8 µM with HT29 colon; 10.9 µM in the assay with CAKI-1 renal; 32 µM in the assay on CCRF-CEM leukemia; 13.7 µM in the assay with KM12 colon. For the same compound, the TGI came to 16.5 µM in the assay on NCI/ADR-RES ovarian, 12.7 µM in the assay with NCI-H460 lung, 17.2 µM in the assay on SNB-75 CNS and 10.3 µM with HL-60(TB) leukemia.
On to `COc1ccccc1CNCCCN1C(=O)c2ccc3c4c(ccc(c24)C1=O)C(=O)N(CCCNCCCCN)C3=O`, for which the GI50 in the assay on IGROV1 ovarian is 0.464 µM; with SR leukemia, 92.8 nM; in the assay on HT29 colon, 206 nM; in the assay on CAKI-1 renal it was 3.31 µM; with CCRF-CEM leukemia, 304 nM; with KM12 colon, 332 nM. Besides, the GI50 in the assay with NCI/ADR-RES ovarian was 3.58 µM; with NCI-H460 lung, 313 nM; with SNB-75 CNS, 0.344 µM; with HL-60(TB) leukemia, 229 nM. Also, the TGI was 15.9 µM with IGROV1 ovarian; 0.82 µM in the assay on SR leukemia; 0.695 µM in the assay on HT29 colon; above 42.4 µM in the assay with CAKI-1 renal; 3.28 µM in the assay with CCRF-CEM leukemia; 1.29 µM in the assay on KM12 colon. Besides, the total growth inhibition concentration (TGI) in the assay with NCI/ADR-RES ovarian is 22.8 µM; in the assay with NCI-H460 lung, 1 µM; in the assay on SNB-75 CNS, 1.67 µM; in the assay with HL-60(TB) leukemia, 0.527 µM.
Regarding `COc1ccc([C@H]2c3[nH]c4ccccc4c3C[C@H]3C(=O)N(CCCCCCC(=O)NO)CC(=O)N23)cc1`, the GI50 in the assay on IGROV1 ovarian is 2.32 µM; with SR leukemia, 1460 nM; with HT29 colon, 3730 nM; in the assay with CAKI-1 renal it was 1.68 µM; in the assay with CCRF-CEM leukemia, 1480 nM; in the assay on KM12 colon, 2730 nM. Besides, the GI50 with NCI/ADR-RES ovarian was 4.26 µM; in the assay on NCI-H460 lung, 2760 nM; with SNB-75 CNS, 1.12 µM; in the assay with HL-60(TB) leukemia, 1190 nM. The TGI in the assay with IGROV1 ovarian was above 33.3 µM; in the assay on SR leukemia it was above 33.3 µM; with HT29 colon it was above 33.3 µM; with CAKI-1 renal, 13.9 µM; in the assay on CCRF-CEM leukemia, above 33.3 µM; in the assay on KM12 colon, above 33.3 µM. Besides, the TGI in the assay on NCI/ADR-RES ovarian, in the assay on NCI-H460 lung, with SNB-75 CNS and with HL-60(TB) leukemia was above 33.3 µM throughout.
`c1ccc2[nH]c(-c3cscn3)nc2c1`: the TGI in the assay on IGROV1 ovarian was above 100 µM; with SR leukemia, above 100 µM; in the assay with HT29 colon it was above 100 µM; with CAKI-1 renal, > 100 µM and 37.2 µM; in the assay with CCRF-CEM leukemia, above 100 µM; in the assay on KM12 colon it was above 100 µM. The TGI with NCI/ADR-RES ovarian, in the assay with NCI-H460 lung, with SNB-75 CNS and with HL-60(TB) leukemia was above 100 µM throughout. Also, the GI50 in the assay with SR leukemia was > 100000 nM and 38700 nM.
In the case of `COc1cc(OC)c(OC)cc1/C=C\c1ccnc2ccccc12`, the TGI in the assay with IGROV1 ovarian was above 72.9 µM; in the assay with SR leukemia it was above 100 µM; in the assay on HT29 colon it was 16.1 µM; with CAKI-1 renal, above 79.5 µM; in the assay on CCRF-CEM leukemia it was 67.8 µM; in the assay with KM12 colon, above 67.5 µM. The TGI worked out at 12.1 µM in the assay with NCI/ADR-RES ovarian, 37.3 µM in the assay with NCI-H460 lung, 2.51 µM in the assay on SNB-75 CNS and 5 µM in the assay with HL-60(TB) leukemia.
As for `CSc1ccc2c(c1)N(CCCN(C)C)c1ccccc1S2`, the TGI came out at 28 µM in the assay with IGROV1 ovarian; 19.2 µM in the assay with SR leukemia; 21.1 µM in the assay on HT29 colon; 21.2 µM in the assay on CAKI-1 renal; 23.4 µM in the assay with CCRF-CEM leukemia; 24.9 µM with KM12 colon. The TGI worked out at 26.2 µM in the assay on NCI/ADR-RES ovarian, 26.5 µM in the assay on NCI-H460 lung, 20.8 µM in the assay with SNB-75 CNS and 31.3 µM with HL-60(TB) leukemia.
As for `COc1cc(C(=O)Nc2ccc(-c3nc4ccccc4[nH]3)cc2)cc(OC)c1OC`, the GI50 was 14.1 µM in the assay on IGROV1 ovarian; 6920 nM with SR leukemia; 5950 nM in the assay on HT29 colon; 10.9 µM in the assay on CAKI-1 renal; 7900 nM in the assay on CCRF-CEM leukemia; 9220 nM with KM12 colon. For the same compound, the GI50 in the assay with NCI/ADR-RES ovarian was 13 µM; in the assay on NCI-H460 lung, 5740 nM; with SNB-75 CNS, 10.9 µM; in the assay with HL-60(TB) leukemia it was 17800 nM. In addition, the TGI in the assay with IGROV1 ovarian is 31.5 µM; with SR leukemia it was 40.9 µM; in the assay on HT29 colon it was 19.6 µM; in the assay on CAKI-1 renal, 25.3 µM; in the assay on CCRF-CEM leukemia, 39.3 µM; in the assay on KM12 colon it was 32.5 µM. Also, the TGI with NCI/ADR-RES ovarian was 73.4 µM; in the assay with NCI-H460 lung, 22.7 µM; in the assay with SNB-75 CNS it was 24.6 µM; in the assay on HL-60(TB) leukemia it was 56.4 µM.
Consider `CC(=O)Nc1ccc2c(c1)[nH]c(=O)c1cc(Cl)ccc12`, for which the TGI with IGROV1 ovarian is above 100 µM; in the assay with SR leukemia it was 18.4 µM; with HT29 colon it was 41.5 µM; in the assay on CAKI-1 renal, 8.4 µM; in the assay with CCRF-CEM leukemia it was 13.4 µM; with KM12 colon, above 100 µM. Further, the TGI with NCI/ADR-RES ovarian is above 100 µM; in the assay on NCI-H460 lung, 52.9 µM; in the assay with SNB-75 CNS it was above 100 µM; in the assay with HL-60(TB) leukemia, above 100 µM.
Take `CCCC/C=C1/CCC(CN(C)C)C1=O` (centres undefined): the TGI came out at 10.1 µM in the assay on IGROV1 ovarian; 2.99 µM with SR leukemia; 4.7 µM with HT29 colon; 1.78 µM in the assay with CAKI-1 renal; 1.76 µM in the assay on CCRF-CEM leukemia; 2.31 µM with KM12 colon. Further, the TGI in the assay on NCI/ADR-RES ovarian stood at 15 µM; in the assay with NCI-H460 lung, 26.8 µM; in the assay on SNB-75 CNS it was 6.99 µM; in the assay on HL-60(TB) leukemia, 4.63 µM. Moreover, the results for the GI50 in the assay with HT29 colon, in the assay on CCRF-CEM leukemia and in the assay with NCI-H460 lung were 2300 nM, 424 nM and 9870 nM, respectively.
